The test system of data set [1] is benzodiazepine receptors. As to the kind of experiment: In vivo displacement of 3H-flunitrazepam binding to benzodiazepine receptors in living brain. The note with it: mice, usually subcutaneously, 3H-flunitrazepam i.v. 15 minutes later. From the text:
The pharmaceutical properties of the compounds of the invention have been investigated by determining their capability for displacing radioactively labelled flunitrazepam from such benzodiazepine receptors, and their ability to antagonize pentazole induced convulsions.
The displacement activity of the compounds of the invention has been determined by determining the IC50 value and ED50 value.
The ED50 value represents the dose (mg/kg) of a test substance which causes the specific binding of flunitrazepam to benzodiazepine receptors in a living brain to be reduced to 50% of the control value. Such an in vivo test is carried out as follows:
Groups of mice are injected with the test substance at different doses and usually subcutaneously. 15 minutes later ^3 H-flunitrazepam is giving intravenously to the mice and after further 20 minutes the mice are killed, […]. The ED50 value is determined from dose-response curves.

Data set [2] has as its system pentazole-induced convulsions. As to the kind of experiment: Antagonism of pentazole-induced convulsions. It counts as in vivo. The note with it: ip; read-out: Antagonism of pentazole-induced convulsions ED50 i.p. From the text: The antagonism of pentazole induced convulsions was investigated.
The test has been performed according to known test models in pharmacology,e.g., as described in R. A. Turner, Screening Methods in Pharmacology, Academic Press, N.Y. and London 1965, esp. p. 164 ff. or Woodbury, P. M., Perry, I. K. and Schmidt, R. P. Antiepileptic Drugs, Raven Press, N.Y. 1972.

The test system of data set [3] is pentazole-induced seizures in diazepam-treated NMRI mice. As to the kind of experiment: Antagonism of benzodiazepine (diazepam) action on pentazole-induced seizures. It counts as in vivo. To be noted: i.p., against 5 mg/kg diazepam i.p.; pentazole 150 mg/kg s.c.; clonic seizures in 50% of animals.
Experimental: Antagonism of Benzodiazepine action on pentazol-induced seizures in NMRI mice (20-25 g).
15 minutes later each group of mice were injected intraperitoneally with different doses of the test compounds and after further 15 minutes the mice received 150 mg/kg pentazol, administered subcutaneously. Clonic seizures within the next 30 minutes were noted. Based on the data obtained the ED50 value was calculated.
The test system of data set [4] is lorazepam-induced ataxia in NMRI mice. As to the kind of experiment: Antagonism of benzodiazepine (lorazepam) action in motor incoordination, rotating rod. The class given is in vivo. The method, then: Antagonism of benzodiazepine action in motor incoordination.
NMRI mice (20-25 g) were placed on a horizontal wooden rod (diameter 4.3 cm), rotating at a rate of 6 min^-1, 8 cm above the bench. […] The ability of the compounds of this invention to antagonize the effect of benzodiazepine in motor coordination has been determined by determining the ED50 -value. […] The test was performed as follows:
At least 3 groups of mice (8 mice in each group) were injected intraperitoneally with 2 mg/kg lorazepam. 15 minutes later each group of mice were injected with different doses of the test compounds and after further 15 minutes the test for ataxia was performed. Based on the data obtained the ED50 -value was calculated.

Data set [5] can be described thus: Inhibition of motor coordination (ataxia). It counts as in vivo. To be noted: mouse, sc, mice, 30 minutes after subcutaneous administration, read-out: Inhibition of/Ataxia (motor-incoordination). The method, then:
The inhibition of motor coordination in mice was also studied 30 minutes after subcutaneous administration in accordance with a method described in the litterature (Buus Lassen et al., Acta Pharmacol. et Toxicol., 1971, 39, 1-16).

In data set [6] the target is benzodiazepine receptors. As to the kind of experiment: Displacement of 3H-flunitrazepam specific binding in vitro, rat forebrain membrane suspension. The note with it: 3H-flunitrazepam 1.0 nM, 0° C., pH 7.1.

For the molecule `CCOC(=O)c1ncc2[nH]c3cccc(OC(C)C)c3c2c1C` [(CH3)2 CH, CH3, 5-isopropoxy-4-methyl-β-carboline-3-carboxylic acid ethylester], the “3H-flunitrazepam binding in vivo ED50” value in data set [1] worked out at 0.3 mg/kg. Also, in data set [2], the ED50 is over 100 mg/kg. Moreover, the “ED50, antagonism of benzodiazepine action on pentazole-induced seizures” value in data set [3] is listed as 0.7 mg/kg. Besides, the “ED50, antagonism of benzodiazepine action in motor incoordination” value in data set [4] (against 2 mg/kg lorazepam i.p., ataxia in 50% of animals, compound 15 minutes after lorazepam) came out at 1.0 mg/kg. The ED50 at 0.5 h in data set [5] was over 100 mg/kg. For the same molecule, the “3H-flunitrazepam binding in vitro IC50” value in data set [6] is 0.6 ng/mL.
Turning to `CCOC(=O)c1cc2c(cn1)[nH]c1cccc(OC(C)C)c12` [(CH3)2 CH, H, 5-Isopropoxy-β-carboline-3-carboxylic acid ethylester], in data set [1], the “3H-flunitrazepam binding in vivo ED50” value is on record as 6.4 mg/kg. Besides, the ED50 in data set [2] was over 100 mg/kg. In addition, the ED50 at 0.5 h in data set [5] is over 100 mg/kg. Further, the “3H-flunitrazepam binding in vitro IC50” value in data set [6] was determined as 0.4 ng/mL.
In the case of `CCOC(=O)c1ncc2[nH]c3cccc(OC)c3c2c1CC` [CH3, CH3 CH2, 4-Ethyl-5-methoxy-β-carboline-3-carboxylic acid ethylester], the “3H-flunitrazepam binding in vivo ED50” value in data set [1] came out at 3.0 mg/kg. Moreover, in data set [2], the ED50 is over 100 mg/kg. Moreover, the ED50 at 0.5 h in data set [5] is over 100 mg/kg. The “3H-flunitrazepam binding in vitro IC50” value in data set [6] came out at 1.4 ng/mL.
For the molecule `CN1C(=O)CN=C(c2ccccc2)c2cc(Cl)ccc21` [Diazepam, reference compound], the “3H-flunitrazepam binding in vivo ED50” value in data set [1] is recorded as 1.5 mg/kg. In addition, the ED50 in data set [2] was found to be 3 mg/kg. In addition, the ED50 at 0.5 h in data set [5] came to 3 mg/kg. Also, in data set [6], the “3H-flunitrazepam binding in vitro IC50” value was 3 ng/mL.
As for `O=C1Nc2ccc(Cl)cc2C(c2ccccc2Cl)=NC1O` (centres unmarked) [Lorazepam, reference compound], the “3H-flunitrazepam binding in vivo ED50” value in data set [1] amounted to 0.2 mg/kg. The ED50 in data set [2] was 0.1 mg/kg. The “induction of ataxia (more than three falls from the rod within 2 min)” value in data set [4] (2 mg/kg i.p. 30 min before test) was “induced ataxia in all animals”. In data set [5], the ED50 at 0.5 h worked out at 0.3 mg/kg. Besides, the “3H-flunitrazepam binding in vitro IC50” value in data set [6] came out at 1 ng/mL.

The record behind these values is US4748179A, “β-carbolin-3-carboxylic acid derivatives and their use as benzodiazepine antagonists” (Schering Aktiengesellschaft, priority 1983, dated 1988).
